The record followed here is patent publication US20220380341A1, “INHIBITORS OF HIV-1 NEF FOR THE TREATMENT OF HIV DISEASE” (priority 2018, published 2022).

Like-named read-outs stand apart in the source and are kept apart here.

For one series, the target named is HIV-1 NefNL4-3 (Human immunodeficiency virus type 1 group M subtype B, UniProt P03406, A33V/T15A/T51N/V11I). As to the kind of experiment: Surface plasmon resonance binding to recombinant full-length Nef (NL4-3). As to conditions: for RU30/RUNef (extent of binding): response units at 30 μM relative to Nef immobilized on the SPR chip; for Nef NL4-3 Binding, SPR 1:1 or 2-site fitting KD1: 1:1 Langmuir fit where the KD2 cell says '1 to 1 fitting', else 2-site fit. In general terms: Surface plasmon resonance follows binding to a sensor surface in real time, without labels.

The test system of the next series is HIV-1NL4-3. As to the kind of experiment: HIV-1 infectivity assay in TZM-bl reporter cell line (LTR-luciferase, 48 h). The format is cell-based. As to conditions: for inhibition at 1 µM: Human immunodeficiency virus 1, TZM-bl. The method, then: (§1) In particular, the tables show antiretroviral activity as percent inhibition of HIV-1 infectivity at 1 μM. In brief, this assay uses the TZM-bl reporter cell line, which carries a stable copy of the HIV-1 LTR coupled to luciferase. Cells are infected with HIV-1NL4-3 in the presence and absence of each compound, and luciferase activity is measured 48 h later. This assay measures early events in the HIV-1 life cycle, including viral entry, reverse transcription, nuclear entry and integration, and viral transcription. All assays include control cells infected with Nef-defective HIV-1, which replicates at 30-50% of wild-type in this system. Results are normalized to percent inhibition relative to DMSO-treated control cells infected with wild-type HIV-1 (0% inhibition) and DMSO-treated cells infected with Nef-defective HIV-1 (100% of the Nef-dependent effect)—see column 3. In addition, cell viability is measured in the TZM-bl cell line in the presence of each test compound and in the absence of HIV-1 infection, using the Cell Titer Blue cell viability assay (Promega; column 4).

Another series concerns TZM-bl cell line. It counts as cell-based. As to conditions: 1 μM. The method, then:
as §1

Where [1] appears, read: KD, M, Table 4, SPR fit 2-step induced fit, KD = koff/kon × koff2/(koff2 + kon2).
[2] abbreviates: Nef NL4-3 Binding, SPR 2-state fitting KD, Table 1, 2-step induced-fit model.
The mark [3] stands for this setting: Table 4, 2-step induced fit, T = 1/koff2.
Setting [4] is: read-out: Nef NL4-3 Binding, SPR 1:1 or 2-site fitting KD2, Table 1, 2-site fit, second component.
Where [5] appears, read: 1.0 μM, TZM-bl reporter cell line, Table 4, read-out: % Infectivity Inhibition.
[6] abbreviates: 48 h, Table 1, TZM-bl cells, 1 μM, 48 h, 100% = Nef-defective HIV-1, read-out: HIV-1 Infectivity % Inhibition Norm. to Δ-Nef @ 1 μM.

By inhibition is commonly meant the change of the read-out against control, counted positive when it falls. In the case of `O=C(NCC1CC1)c1ccc(-c2nn(-c3nc4ccccc4[nH]3)c(O)c2CCc2ccc(F)cc2)cc1` [Compound I-1201, 4-[1-(1H-1,3-benzodiazol-2-yl)-4-[2-(4-fluorophenyl)ethyl]-5-hydroxy-1H-pyrazol-3-yl]-N-(cyclopropylmethyl)benzamide], the Kd on HIV-1 NefNL4-3 turned out to be 369 nM; at HIV-1 NefNL4-3 (setting [1]), 740 nM; on HIV-1 NefNL4-3 (setting [2]), 740 nM; on HIV-1 NefNL4-3 (setting [4]), 2510 nM. At HIV-1 NefNL4-3 (setting [3]), the “T, minutes (residence time)” value is reported as 2.06E + 03 minutes. Moreover, the “RU30/RUNef (extent of binding)” value at HIV-1 NefNL4-3 was determined as 2.17E- 02. Besides, the inhibition at 1 µM in the series with HIV-1NL4-3 (setting [5]) and in the series with HIV-1NL4-3 (setting [6]) was 11.8% throughout. Also, the “% Cell Viability” value in the series with TZM-bl cell line (human) was determined as 95.4%. The “Percent Viability @ 1 μM (TZM-bl cells)” value in the series on TZM-bl cell line (human) came out at 95.4%.
Turning to `Cn1cc(-c2nn(-c3nc4ccccc4[nH]3)c(O)c2CCc2ccc(F)cc2)ccc1=O` [Compound I-134, 5-[1-(1H-1,3-benzodiazol-2-y1)-4-[2-(4-fluorophenyl)ethyl]-5-hydroxy-1H-pyrazol-3-yl]-1-methyl-1,2-dihydropyridin-2-one], the “Nef NL4-3 Binding, SPR 1:1 or 2-site fitting KD1” value (from here on “Nef NL4-3 Binding”) on HIV-1 NefNL4-3 (Table 1) is “No Interaction”. The inhibition at 1 µM in the series with HIV-1NL4-3 (setting [6]) stood at 45.8%. Besides, in the series on TZM-bl cell line (human), the “Percent Viability @ 1 μM (TZM-bl cells)” value was 100.5%.
In the case of “2-{4-[1-(1H-1,3-benzodiazol-2-yl)-4-[2-(4-fluorophenyl)ethyl]-5-hydroxy-1H-pyrazol-3-yl]piperidine-1-carbonyl}benzene-1,3,5-triol [Compound I-729]”, the “Nef NL4-3 Binding” value on HIV-1 NefNL4-3 (Table 1) is “No Interaction”. The “HIV-1 Infectivity % Inhibition Norm. to Δ-Nef @ 1 μM” value in the series on HIV-1NL4-3 (Table 1, TZM-bl cells, 1 μM, 48 h, 100% = Nef-defective HIV-1) amounted to 57.2%. Moreover, in the series with TZM-bl cell line (Table 1, uninfected TZM-bl cells, Cell Titer Blue), the “Percent Viability @ 1 μM (TZM-bl cells)” value is given as 102.4%.
For the compound `Cc1nn(-c2nc3ccccc3[nH]2)c(O)c1Cc1ccc(Cl)cc1F` [Compound I-156, 1-(1H-1,3-benzodiazol-2-yl)-4-[(4-chloro-2-fluorophenyl)methyl]-3-methyl-1H-pyrazol-5-ol], on HIV-1 NefNL4-3, the Kd came to 8.56 nM and the “RU30/RUNef (extent of binding)” value was found to be 3.62E- 03. For the same compound, the Kd at HIV-1 NefNL4-3 (KD, M, Table 4, SPR fit 1:1 Langmuir, KD = koff/kon) is 8.56 nM. Moreover, the “T, minutes (residence time)” value on HIV-1 NefNL4-3 (Table 4, 1:1 Langmuir fit, T = 1/koff) is on record as 7.34E + 02 minutes. Also, the inhibition at 1 µM in the series on HIV-1NL4-3 (setting [5]) worked out at 15.4%. Moreover, in the series on HIV-1NL4-3 (setting [6]), the inhibition at 1 µM worked out at 15.4%. Besides, in the series with TZM-bl cell line (human), the “% Cell Viability” value is on record as 100% and the “Percent Viability @ 1 μM (TZM-bl cells)” value is recorded as 101.5%.
Consider `CN1CCN(CC(=O)N2CCC(Cc3nn(-c4nc5ccccc5[nH]4)c(O)c3CCc3ccc(F)cc3)CC2)CC1` [Compound I-768, 1-(4-{[1-(1H-1,3-benzodiazol-2-yl)-4-[2-(4-fluorophenyl)ethyl]-5-hydroxy-1H-pyrazol-3-yl]methyl}piperidin-1-yl)-2-(4-methylpiperazin-1-yl)ethan-1-one], for which, at HIV-1 NefNL4-3, the Kd was 3840 nM. Besides, the inhibition at 1 µM with HIV-1NL4-3 (setting [6]) was -34.5%. Further, in the series with TZM-bl cell line (human), the “Percent Viability @ 1 μM (TZM-bl cells)” value was 99.8%.
Take `O=C(OCc1ccccc1)N1CCC(c2nn(-c3nc4cccnc4[nH]3)c(O)c2CCc2ccc(F)cc2)CC1` [Compound I-306, benzyl 4-{4-[2-(4-fluorophenyl)ethyl]-5-hydroxy-1-{3H-imidazo[4,5-b]pyridin-2-yl}-1H-pyrazol-3-yl}piperidine-1-carboxylate]: the Kd on HIV-1 NefNL4-3 was 13.6 nM; at HIV-1 NefNL4-3 (setting [1]), 731 nM; at HIV-1 NefNL4-3 (setting [2]), 731 nM; on HIV-1 NefNL4-3 (setting [4]), 5430 nM. In addition, on HIV-1 NefNL4-3 (setting [3]), the “T, minutes (residence time)” value was 3.52E + 01 minutes. In addition, the “RU30/RUNef (extent of binding)” value at HIV-1 NefNL4-3 worked out at 9.61E- 03. In addition, the inhibition at 1 µM was 0% with HIV-1NL4-3 (setting [5]) and -5.2% with HIV-1NL4-3 (setting [6]). The “% Cell Viability” value in the series on TZM-bl cell line (human) was 95.7%. The “Percent Viability @ 1 μM (TZM-bl cells)” value in the series on TZM-bl cell line (human) is recorded as 95.7%.
Regarding `Oc1c(CCC2CCN(CC(F)(F)F)CC2)c(-c2ccc(C(F)(F)F)cc2)nn1-c1nc2ccccc2[nH]1` [Compound I-1006, 1-(1H-1,3-benzodiazol-2-yl)-4-{2-[1-(2,2,2-trifluoroethyl)piperidin-4-yl]ethyl}-3-[4-(trifluoromethyl)phenyl]-1H-pyrazol-5-ol], the Kd on HIV-1 NefNL4-3 was found to be 472 nM; on HIV-1 NefNL4-3 (setting [1]), 1.24 nM; at HIV-1 NefNL4-3 (setting [2]) it was 1.24 nM; at HIV-1 NefNL4-3 (setting [4]), 15100 nM. The “T, minutes (residence time)” value on HIV-1 NefNL4-3 (setting [3]) is listed as 1.80E + 04 minutes. The “RU30/RUNef (extent of binding)” value at HIV-1 NefNL4-3 worked out at 5.08E- 03. The inhibition at 1 µM with HIV-1NL4-3 (setting [5]) and with HIV-1NL4-3 (setting [6]) was 83.1% throughout. For the same compound, the “% Cell Viability” value in the series on TZM-bl cell line (human) was 85.2%. For the same compound, in the series with TZM-bl cell line (human), the “Percent Viability @ 1 μM (TZM-bl cells)” value was 85.2%.
In the case of `CCOC(=O)N1CCC(c2nn(-c3nc4ccccc4[nH]3)c(O)c2CCC2CCOCC2)CC1` [Compound I-723, ethyl 4-[1-(1H-1,3-benzodiazol-2-yl)-5-hydroxy-4-[2-(oxan-4-yl)ethyl]-1H-pyrazol-3-yl]piperidine-1-carboxylate], the Kd on HIV-1 NefNL4-3 was found to be 2100 nM; at HIV-1 NefNL4-3 (setting [1]) it was 9090 nM; on HIV-1 NefNL4-3 (setting [2]), 9090 nM; on HIV-1 NefNL4-3 (setting [4]), 12200 nM. Further, at HIV-1 NefNL4-3 (setting [3]), the “T, minutes (residence time)” value is listed as 5.21E + 00 minutes. On HIV-1 NefNL4-3, the “RU30/RUNef (extent of binding)” value is on record as 9.19E- 03. Further, the inhibition at 1 µM in the series on HIV-1NL4-3 (setting [5]) is 0%; in the series on HIV-1NL4-3 (setting [6]), -18.1%. In the series with TZM-bl cell line (human), the “% Cell Viability” value worked out at 92.2%. Moreover, the “Percent Viability @ 1 μM (TZM-bl cells)” value in the series on TZM-bl cell line (human) is reported as 92.2%.
As for `CC(C)(O)C(=O)N1CCCC1c1nn(-c2nc3ccccc3[nH]2)c(O)c1CCc1ccc(F)cc1` (stereo not drawn) [Compound I-761, 1-{2-[1-(1H-1,3-benzodiazol-2-yl)-4-[2-(4-fluorophenyl)ethyl]-5-hydroxy-1H-pyrazol-3-yl]pyrrolidin-1-yl}-2-hydroxy-2-methylpropan-1-one], the Kd at HIV-1 NefNL4-3 was 854 nM. In the series on HIV-1NL4-3 (setting [6]), the inhibition at 1 µM is -3.8%. The “Percent Viability @ 1 μM (TZM-bl cells)” value in the series with TZM-bl cell line (human) is recorded as 101.5%.
In the case of `O=C(c1cnccn1)N1CCCC(c2nn(-c3nc4ccccc4[nH]3)c(O)c2CCc2ccc(F)cc2)C1` (stereo not drawn) [Compound I-756, 1-(1H-1,3-benzodiazol-2-yl)-4-[2-(4-fluorophenyl)ethyl]-3-[1-(pyrazine-2-carbonyl)piperidin-3-yl]-1H-pyrazol-5-ol], at HIV-1 NefNL4-3 (Table 1), the “Nef NL4-3 Binding” value is “No Interaction”. Also, the inhibition at 1 µM in the series with HIV-1NL4-3 (setting [6]) turned out to be 34.3%. Also, the “Percent Viability @ 1 μM (TZM-bl cells)” value in the series with TZM-bl cell line (human) amounted to 101.9%.
Turning to `O=C(O)c1ccc(CCc2c(-c3ccccc3)nn(-c3cc(C(F)(F)F)n[nH]3)c2O)cc1` [Compound I-618, 4-{2-[5-hydroxy-3-phenyl-5′-(trifluoromethyl)-2′H-[1,3′-bipyrazol]-4-yl]ethyl}benzoic acid], the “Nef NL4-3 Binding” value on HIV-1 NefNL4-3 (Table 2) is on record as “No interaction”. Moreover, the inhibition at 1 µM in the series with HIV-1NL4-3 (48 h, Table 2, TZM-bl cells, 1 μM, 48 h, 100% = Nef-defective HIV-1, read-out: HIV-1 Infectivity % Inhibition Norm. to Δ-Nef @ 1 μM) was 0%. Further, the “Percent Viability @ 1 μM (TZM-bl cells)” value in the series with TZM-bl cell line (human) worked out at 93.8%.
`Oc1c(CCc2ccc(F)cc2)c(CC2CCN(Cc3ccccn3)CC2)nn1-c1nc2ccccc2[nH]1` [Compound I-807, 1-(1H-1,3-benzodiazol-2-yl)-4-[2-(4-fluorophenyl)ethyl]-3-({1-[(pyridin-2-yl)methyl]piperidin-4-yl}methyl)-1H-pyrazol-5-ol]: at HIV-1 NefNL4-3 (Table 1), the “Nef NL4-3 Binding” value is on record as “No Interaction”. Further, the inhibition at 1 µM with HIV-1NL4-3 (setting [6]) was found to be 40.4%. The “Percent Viability @ 1 μM (TZM-bl cells)” value in the series with TZM-bl cell line (human) was 99.0%.
